{"source": "paper PMC6829886", "about": "“Inhibition of Non-Small Cell Lung Cancer Cells by Oxy210, an Oxysterol-Derivative that Antagonizes TGFβ and Hedgehog Signaling” (Cells, 2019)", "key": {"Human TGFBR2": {"target": "T1, Human TGFBR2 (Homo sapiens, UniProt P37173)", "T1 construct": "Human TGFBR2 (amino acid 188-end); purchased Eurofins", "T1 sequence (P37173 188-567 limits assumed)": "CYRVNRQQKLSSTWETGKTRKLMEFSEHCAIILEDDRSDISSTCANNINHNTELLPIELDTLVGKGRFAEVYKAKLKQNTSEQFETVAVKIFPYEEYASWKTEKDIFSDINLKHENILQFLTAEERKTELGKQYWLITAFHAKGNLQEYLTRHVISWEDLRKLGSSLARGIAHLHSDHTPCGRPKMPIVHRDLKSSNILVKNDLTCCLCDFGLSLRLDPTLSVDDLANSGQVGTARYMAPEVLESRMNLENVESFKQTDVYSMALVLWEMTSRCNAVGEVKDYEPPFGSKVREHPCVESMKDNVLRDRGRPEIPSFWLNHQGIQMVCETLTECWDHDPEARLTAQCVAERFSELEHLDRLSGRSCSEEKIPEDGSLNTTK", "assay": "TGFβ receptor II kinase inhibition assay (Eurofins)", "format": "biochemical", "settings": "vs. positive controls Cdk1/2 Inhibitor III and PKR Inhibitor", "protocol": "Effect of Oxy210 on inhibition of TGFβ receptors I and II kinase activity was assessed by Eurofins (Celle-L’Evescault, France). TGFBR1 (h): Human TGFBR1 (amino acid 200 to end) was incubated with 8 mM MOPS pH 7.0, 0.2 mM EDTA, 1 mM MnCl2, 2 mg/mL casein, 10 mM Magnesium acetate and […] (specific activity and concentration as required). The reaction was initiated by the addition of the Mg/ATP mix. After incubation for 40 min at room temperature, the reaction was stopped by the addition of phosphoric acid to a concentration of 0.5%. 10 μL of the reaction was then spotted onto a P30 filtermat and washed four times for 4 min in 0.425% phosphoric acid and once in methanol prior to drying and scintillation counting. TGFBR2 (h): Human TGFBR2 (amino acid 188-end) was incubated with 20 mM Tris/HCl pH 8.5, 0.2 mM EDTA, 0.33 mg/mL MBP, 10 mM Magnesium acetate and [9-33P-ATP] (specific activity and concentration as required). The reaction was initiated by the addition of the Mg/ATP mix. After incubation for 120 min at room temperature, the reaction was stopped by the addition of phosphoric acid to a concentration of 0.5%. […]\nFigure 11 Inhibition of TGFβ-induced Smad2/3 phosphorylation and transcriptional activity. […] Luciferase activity was measured and normalized to the Renilla luciferase activity. […]"}, "[1]": {"assay": "Metabolic stability in human liver microsomes", "format": "in vitro ADME"}, "Liver X Receptor (LXR)": {"tested_on": "Liver X Receptor (LXR)", "format": "cell-based, human"}}, "data": [{"smiles": "C[C@]12CC[C@H]3[C@@H](CC=C4C[C@@H](O)CC[C@@]43C)[C@@H]1CC[C@@H]2[C@](C)(O)CCc1cccnc1", "note": "[Oxy210, (3S,8S,9S,10R,13S,14S,17S)-17-((R)-2-hydroxy-4-(pyridin-3-yl)butan-2-yl)-10,13-dimethyl-2,3,4,7,8,9,10,11,12,13,14,15,16,17-tetradecahydro-1H-cyclopenta[a]phenanthren-3-ol]", "values": [{"measurement": "inhibitory activity on TβRII in functional kinase assay", "setting": "Human TGFBR2", "result": "did not display significant inhibitory activity"}, {"measurement": "half-life", "setting": "[1]; human, liver microsomes, read-out: HLM, Half-Life", "result": 1.15, "unit": "h"}, {"measurement": "remaining at 1 h", "setting": "[1]; read-out: HLM, % Remaining after 60 min", "result": 55, "unit": "%"}, {"measurement": "induced expression of SREB1c", "setting": "Liver X Receptor (LXR)", "result": "lack of induced expression"}]}]}
